Key:
Assay in all cases: Histone peptide microarray
Assay type in all cases: binding, human
AIRE (PP) = conditions: GST-tagged AIRE (PP), sheet Array Heatmap, each array performed twice, total n = 4
Outline: (§1)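 GST-PHD reader, 0.5 μM, probed on 293-peptide histone array (single/combinatorial PTMs); optimized array protocol; signal = mean ± SD, n = 4.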

BAZ2B = conditions: GST-tagged BAZ2B, sheet Array Heatmap, each array performed twice, total n = 4
Outline: as §1

BPTF (PB) = conditions: GST-tagged BPTF (PB = PHD + Bromodomain), sheet Array Heatmap, each array performed twice, total n = 4
Outline: as §1

CHD4 (PPCC) = conditions: for Array Heatmap signal (histone peptide microarray): GST-tagged CHD4 (PPCC = Dual PHD + Dual Chromodomain), sheet Array Heatmap, each array performed twice, total n = 4
Outline: as §1

CHD5 (PCC) = conditions: GST-tagged CHD5 (PCC = PHD + Dual Chromodomain), sheet Array Heatmap, each array performed twice, total n = 4
Outline: as §1

CHD5 (PPCC) = conditions: GST-tagged CHD5 (PPCC = Dual PHD + Dual Chromodomain), sheet Array Heatmap, each array performed twice, total n = 4
Outline: as §1

DIDO1 = conditions: GST-tagged DIDO1, sheet Array Heatmap, each array performed twice, total n = 4
Outline: as §1

DPF2 (PPC2W2) = conditions: GST-tagged DPF2 (PPC2W2 = Dual PHD + C2W2-type Zn-finger), sheet Array Heatmap, each array performed twice, total n = 4
Outline: as §1

ING2 = conditions: GST-tagged ING2, sheet Array Heatmap, each array performed twice, total n = 4
Outline: as §1

ING3 = conditions: GST-tagged ING3, sheet Array Heatmap, each array performed twice, total n = 4
Outline: as §1

ING4 = conditions: GST-tagged ING4, sheet Array Heatmap, each array performed twice, total n = 4
Outline: as §1

ING5 = conditions: GST-tagged ING5, sheet Array Heatmap, each array performed twice, total n = 4
Outline: as §1

KDM4C (TTP) = conditions: GST-tagged KDM4C (TTP = Tandem Tudor domain + PHD), sheet Array Heatmap, each array performed twice, total n = 4
Outline: as §1

KDM5A (1) = conditions: GST-tagged KDM5A (1), sheet Array Heatmap, each array performed twice, total n = 4
Outline: as §1

KDM5B (1) = conditions: GST-tagged KDM5B (1), sheet Array Heatmap, each array performed twice, total n = 4
Outline: as §1

KDM5B (3) = conditions: GST-tagged KDM5B (3), sheet Array Heatmap, each array performed twice, total n = 4
Outline: as §1

MLL5 = conditions: GST-tagged MLL5, sheet Array Heatmap, each array performed twice, total n = 4
Outline: as §1

PHF13 = conditions: GST-tagged PHF13, sheet Array Heatmap, each array performed twice, total n = 4
Outline: as §1

PHF21A = conditions: GST-tagged PHF21A, sheet Array Heatmap, each array performed twice, total n = 4
Outline: as §1

PHF23 = conditions: GST-tagged PHF23, sheet Array Heatmap, each array performed twice, total n = 4
Outline: as §1

PHF2 = conditions: GST-tagged PHF2, sheet Array Heatmap, each array performed twice, total n = 4
Outline: as §1

PHF8 = conditions: GST-tagged PHF8, sheet Array Heatmap, each array performed twice, total n = 4
Outline: as §1

PHRF1 (RP) = conditions: GST-tagged PHRF1 (RP), sheet Array Heatmap, each array performed twice, total n = 4
Outline: as §1

RAG2 = conditions: GST-tagged RAG2, sheet Array Heatmap, each array performed twice, total n = 4
Outline: as §1

SP140L = conditions: GST-tagged SP140L, sheet Array Heatmap, each array performed twice, total n = 4
Outline: as §1

TAF3 = conditions: GST-tagged TAF3, sheet Array Heatmap, each array performed twice, total n = 4
Outline: as §1

## H3K9ac: H3 1-20 [Peptide H3K9ac]
AIRE (PP); listed as 2
  Array Heatmap signal (histone peptide microarray): 0.4059
AIRE (PP); listed as 3
  Array Heatmap signal (histone peptide microarray): 0.3893
BAZ2B; listed as 2
  Array Heatmap signal (histone peptide microarray): 0.4731
BAZ2B; listed as 3
  Array Heatmap signal (histone peptide microarray): 0.4634
BPTF (PB); listed as 2
  Array Heatmap signal (histone peptide microarray): 0.3339
BPTF (PB); listed as 3
  Array Heatmap signal (histone peptide microarray): 0.3268
CHD4 (PPCC); listed as 2
  Array Heatmap signal (histone peptide microarray): 0.6247
CHD4 (PPCC); listed as 3
  Array Heatmap signal (histone peptide microarray): 0.6748
CHD4 (PPCC); peptide microarray, reader 0.5 μM, n = 4
  relative binding: increased binding
CHD5 (PCC); listed as 2
  Array Heatmap signal (histone peptide microarray): 0.8342
CHD5 (PCC); listed as 3
  Array Heatmap signal (histone peptide microarray): 0.7526
CHD5 (PPCC); listed as 2
  Array Heatmap signal (histone peptide microarray): 0.5875
CHD5 (PPCC); listed as 3
  Array Heatmap signal (histone peptide microarray): 0.5535
DIDO1; listed as 2
  Array Heatmap signal (histone peptide microarray): 0.6642
DIDO1; listed as 3
  Array Heatmap signal (histone peptide microarray): 0.7409
DPF2 (PPC2W2); listed as 2
  Array Heatmap signal (histone peptide microarray): 0.7428
DPF2 (PPC2W2); listed as 3
  Array Heatmap signal (histone peptide microarray): 0.7589
ING2; listed as 2
  Array Heatmap signal (histone peptide microarray): 0.6059
ING2; listed as 3
  Array Heatmap signal (histone peptide microarray): 0.6036
ING3; listed as 2
  Array Heatmap signal (histone peptide microarray): 0.4489
ING3; listed as 3
  Array Heatmap signal (histone peptide microarray): 0.4338
ING4; listed as 2
  Array Heatmap signal (histone peptide microarray): 0.4346
ING4; listed as 3
  Array Heatmap signal (histone peptide microarray): 0.4319
ING5; listed as 2
  Array Heatmap signal (histone peptide microarray): 0.3289
ING5; listed as 3
  Array Heatmap signal (histone peptide microarray): 0.3311
KDM4C (TTP); listed as 2
  Array Heatmap signal (histone peptide microarray): 0.4318
KDM4C (TTP); listed as 3
  Array Heatmap signal (histone peptide microarray): 0.4332
KDM5A (1); listed as 2
  Array Heatmap signal (histone peptide microarray): 0.4743
KDM5A (1); listed as 3
  Array Heatmap signal (histone peptide microarray): 0.4479
KDM5B (1); listed as 2
  Array Heatmap signal (histone peptide microarray): 0.6899
KDM5B (1); listed as 3
  Array Heatmap signal (histone peptide microarray): 0.6761
KDM5B (3); listed as 2
  Array Heatmap signal (histone peptide microarray): 0.5795
KDM5B (3); listed as 3
  Array Heatmap signal (histone peptide microarray): 0.5654
MLL5; listed as 2
  Array Heatmap signal (histone peptide microarray): 0.5361
MLL5; listed as 3
  Array Heatmap signal (histone peptide microarray): 0.5261
PHF13; listed as 2
  Array Heatmap signal (histone peptide microarray): 0.5811
PHF13; listed as 3
  Array Heatmap signal (histone peptide microarray): 0.5738
PHF21A; listed as 2
  Array Heatmap signal (histone peptide microarray): 0.4621
PHF21A; listed as 3
  Array Heatmap signal (histone peptide microarray): 0.47
PHF23; listed as 2
  Array Heatmap signal (histone peptide microarray): 0.5351
PHF23; listed as 3
  Array Heatmap signal (histone peptide microarray): 0.5457
PHF2; listed as 2
  Array Heatmap signal (histone peptide microarray): 0.6188
PHF2; listed as 3
  Array Heatmap signal (histone peptide microarray): 0.5837
PHF8; listed as 2
  Array Heatmap signal (histone peptide microarray): 0.3437
PHF8; listed as 3
  Array Heatmap signal (histone peptide microarray): 0.3517
PHRF1 (RP); listed as 2
  Array Heatmap signal (histone peptide microarray): 0.9096
PHRF1 (RP); listed as 3
  Array Heatmap signal (histone peptide microarray): 0.8949
RAG2; listed as 2
  Array Heatmap signal (histone peptide microarray): 0.3184
RAG2; listed as 3
  Array Heatmap signal (histone peptide microarray): 0.2998
SP140L; listed as 2
  Array Heatmap signal (histone peptide microarray): 0.3674
SP140L; listed as 3
  Array Heatmap signal (histone peptide microarray): 0.3745
TAF3; listed as 2
  Array Heatmap signal (histone peptide microarray): 0.3565
TAF3; listed as 3
  Array Heatmap signal (histone peptide microarray): 0.3052

From PMC6979384, “Characterization of the plant homeodomain (PHD) reader family for their histone tail interactions” (Epigenetics & Chromatin, 2020)
